Consider 72 compounds from PubChem BioAssay AID1259334 (Broad Institute, 2017).

For orientation: AC50 means the concentration at which the activity in the assay is half-maximal.

A short description of assay [1]: TNFa signaling inhibitors in B cell line, dose response, counter-screen (AID 1259334).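 Note: cells stimulated with TNFa after compound preincubation.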 Particulars: B cell line, TNFa signaling counterscreen reporter, active compounds read low. In general terms: A counterscreen serves to expose hits that act by an unwanted route or on another target.
The subject of assay [2] is B cell line, TNFa signaling counterscreen reporter. Described as above.

Activity calls are given as the source filed them. Cut-off read from the data, not from the text of the source: active = AC50 below about 11 µM.

Take `CC12CC[C@H]3[C@@H](CCC4(O)C[C@H](O)CCC34/C=N/NC(=O)Cc3ccccc3)C1(O)CCC2C1=CC(=O)OC1` (some centres not stated): in assay [1] (at 3.5 µM), the max activity is 5.28% (inactive).
Consider `N#C[C@@H]1[C@@H](c2ccc(C#CC3CCCCC3)cc2)[C@H](CO)N1C(=O)Nc1ccc(F)cc1`, for which, in assay [1] (at 0.042 µM), the max activity is 13.4% (inactive).
As to `COc1cccc(S(=O)(=O)N(C)C[C@H]2OCc3ccccc3-c3c(n(C)c4ccccc34)C(=O)N([C@@H](C)CO)C[C@H]2C)c1`, in assay [1] (at 0.0046 µM), the max activity was 10.1% (inactive).
For `O=C(c1ccncc1)N1C[C@@H]2N[C@H](C1)C2c1ccc(/C=C/c2ccccc2)cc1` (some centres not stated), the max activity in assay [1] (at 0.0135 µM) was 8.12% (inactive).
Take `NS(=O)(=O)c1nn2cc(-c3ccccc3)nc2s1`: in assay [1] (at 1.1 µM), the max activity is 17.7% (inactive).
Turning to `COc1ccc(-c2cnc3c(c2)C(=O)N([C@H](C)CO)C[C@@H](C)[C@@H](CN(C)C(=O)Nc2c(C)noc2C)O3)cc1`, the max activity in assay [1] (at 1.1 µM) is 22.7% (inactive).
Consider `N#C[C@@H]1[C@@H](c2ccccc2)[C@H](CO)N1C(=O)CN1CCOCC1`, for which, in assay [1] (at 10 µM), the max activity was 46.9% (inactive).
Regarding `N#C[C@H]1[C@@H](c2ccc(C#CC3CCCCC3)cc2)[C@@H](CO)N1C(=O)Nc1ccc(F)cc1`, the max activity in assay [1] (at 1.1 µM) was 10.8% (inactive).
Turning to `C[C@H](CO)N1C[C@H](C)[C@H](CN(C)CC2CCCCC2)Oc2ccc(NC(=O)Nc3ccc(C(F)(F)F)cc3)cc2C1=O`, the max activity in assay [1] (at 1.1 µM) is 8.34% (inactive).
For the compound `Oc1cc(O)cc(/C=C/c2ccc(O)c(O)c2)c1`, the max activity in assay [1] (at 0.38 µM) was 7.46% (inactive).
Take `CCOC(=O)c1cc2c(ccn2C)n1Cc1ccc(C#N)cc1`: the max activity in assay [1] (at 10 µM) was 20.1% (inactive).
With `C[C@H]1CN([C@@H](C)CO)C(=O)c2ccccc2-c2ccccc2CO[C@H]1CN(C)C(=O)[C@@H](Cc1ccccc1)N(C)C`, the max activity in assay [1] (at 0.38 µM) was -6.07% (inactive).
Regarding `N#C[C@@H]1[C@H](c2ccc(C#CC3CCCC3)cc2)[C@H](CO)N1C(=O)Cc1ccccn1`, in assay [1] (at 3.5 µM), the max activity was -8.57% (inactive).
In the case of `CC1=NNC(=O)C1Br` (configuration not stated), the max activity in assay [1] (at 0.042 µM) is 52.7% (inactive).
For `CCc1cnc(N2[C@H](C#N)[C@H](c3ccc(C#CCC4CCCC4)cc3)[C@@H]2CO)s1`, the max activity in assay [1] (at 10 µM) was 32.9% (inactive).
Consider `C[C@@H]1CN([C@H](C)CO)C(=O)c2c(c3ccccc3n2C)-c2ccccc2CO[C@H]1CN(C)C(=O)Nc1ccccc1C(F)(F)F`, for which the max activity in assay [1] (at 10 µM) is -6.36% (inactive).
As to `C[C@@H]1CCCCO[C@@H](CN(C)S(=O)(=O)c2ccc(Cl)cc2)[C@H](C)CN([C@H](C)CO)C(=O)c2cc(NC(=O)Nc3ccc(C(F)(F)F)cc3)ccc2O1`, in assay [1] (at 1.1 µM), the max activity was 17% (inactive).
Same read-out and setting: as for `CC1=CC(=O)c2ccccc2C1=O`, the figure is 21.6% (inactive).
Consider `C[C@@H]1CN([C@H](C)CO)C(=O)c2cc(NC(=O)Nc3cccc4ccccc34)ccc2O[C@@H](C)CCCCO[C@H]1CN(C)Cc1ccc(C(F)(F)F)cc1`, for which the max activity in assay [1] (at 3.5 µM) was -8.53% (inactive).
As for `COc1ccc2c(c1)c1ncn(Cc3ccccn3)c(=O)c1n2C`, in assay [1] (at 1.1 µM), the max activity was -8.21% (inactive).
For `Cc1ccc2nc(-c3cc(-c4ccccc4)no3)cn2c1`, the max activity in assay [1] (at 1.1 µM) was 49.4% (inactive).
`N#C[C@H]1[C@H](c2ccc(C#CC3CCCCC3)cc2)[C@H](CO)N1C(=O)Nc1ccc(F)cc1`: the max activity in assay [1] (at 0.0135 µM) is 9.39% (inactive).
Regarding `COc1ccc(S(=O)(=O)N(C)C[C@@H]2Oc3ccc(NC(=O)Nc4ccc(C(F)(F)F)cc4)cc3C(=O)N([C@@H](C)CO)C[C@@H]2C)cc1`, in assay [1] (at 0.0135 µM), the max activity is 7.2% (inactive).
Regarding `Cc1ccc(-c2cc(C(=O)N3CC(C)OC(C)C3)c3ccccc3n2)o1` (configuration not stated), the max activity in assay [1] (at 1.1 µM) was 10.3% (inactive).
As to `CCSc1ccc(-c2cc(NC=O)c3ncc(-c4cccc(C(=O)N(C)C)c4)n3c2)cc1`, the max activity in assay [1] (at 3.5 µM) is 45.8% (inactive).
Consider `COc1cccc(S(=O)(=O)N(C)C[C@@H]2OCc3ccccc3-c3c(n(C)c4ccccc34)C(=O)N([C@H](C)CO)C[C@@H]2C)c1`, for which the max activity in assay [1] (at 1.1 µM) is 16.8% (inactive).
Consider `COc1ccc(CN2CC3(CN(C(=O)Cc4ccccc4)C3)c3c([nH]c4cc(OC)ccc34)[C@H]2CO)cc1`, for which the max activity in assay [1] (at 1.1 µM) was 10.3% (inactive).
`Cc1ccc(-c2cc(C(=O)N3CCCC(C(F)(F)F)C3)c3ccccc3n2)o1` (configuration not stated): the max activity in assay [1] (at 3.5 µM) was 21.4% (inactive).
Regarding `COc1ccc2c3c(n(C)c2c1)[C@H](CO)N(C(=O)Nc1ccc(F)cc1)CC31CCN(C(=O)Nc2ccc(F)cc2F)CC1`, the max activity in assay [1] (at 0.0135 µM) was -5.85% (inactive).
As for `Cc1noc(C)c1S(=O)(=O)N(C)C[C@H]1OCc2ccccc2-c2c(n(C)c3ccccc23)C(=O)N([C@H](C)CO)C[C@H]1C`, in assay [1] (at 10 µM), the max activity is -12.3% (inactive).
As to `CCCC(C)Sc1nc2c([nH]1)c(=S)n(C)c(=O)n2C` (configuration not stated), the max activity in assay [1] (at 3.5 µM) was 58.9% (inactive).
On to `COc1ccc(NC(=O)O/N=C/c2c(C)nn(C(C)(C)C)c2C)cc1`, for which the max activity in assay [1] (at 1.1 µM) was 39.8% (inactive).
In the case of `CCCCC1C(=O)NC(=S)N(C)C1=O` (configuration not stated), the max activity in assay [1] (at 1.1 µM) was -7.17% (inactive).
On to `CC12CN3CC(C)(CN(C1)C3c1ccc3c(c1)OCO3)C2=O` (configuration not stated), for which the max activity in assay [1] (at 0.12 µM) is -17.3% (inactive).
For the compound `O=S(=O)(c1cccc2cnccc12)N1CCNCC1`, in assay [1] (at 0.042 µM), the max activity is -11.3% (inactive).
As for `O=C1C(=NO)CCc2ccccc21`, in assay [1] (at 3.5 µM), the max activity is 35.6% (inactive).
For `Cc1noc(C)c1NC(=O)N(C)C[C@@H]1OCCCC[C@@H](C)Oc2ccc(NC(=O)Nc3ccc(C(F)(F)F)cc3)cc2C(=O)N([C@H](C)CO)C[C@H]1C`, the max activity in assay [1] (at 1.1 µM) was 17% (inactive).
With `Cc1ccc(C(CC(=O)NCc2ccco2)c2ccc(OC(C)C)cc2)cc1` (configuration not stated), the max activity in assay [1] (at 3.5 µM) is 36% (inactive).
For `CC(C)(C)NCC(=Cc1ccccc1)C(=O)c1ccccc1`, in assay [2], the AC50 was 2.84 µM.
Take `CC1OC(CC(=O)O)CC2=C1C(=O)c1c(O)cccc1C2=O` (configuration not stated): the AC50 in assay [2] is 0.0869 µM.
As to `COc1cc(C(=O)CCN2CCC(c3ccccc3)C2)cc(OC)c1OC` (configuration not stated), the AC50 in assay [2] was 4.66 µM.
For the compound `C[C@@H]1CN([C@H](C)CO)C(=O)c2c(c3ccccc3n2C)-c2ccccc2CO[C@@H]1CN(C)C(=O)c1cc(Cl)cc(Cl)c1`, the concentration at half-maximal activity (AC50) in assay [2] is 8.14 µM.
The same measure, in the same setting: as for `N#C[C@H]1[C@H](c2ccc(C#Cc3ccc(F)cc3)cc2)[C@@H](CO)N1C(=O)C1CCC1`, the figure is > 20 µM (inactive); as for `CC(NCC(O)COCCC12CC3CC(CC(C3)C1)C2)c1ccccc1` (configuration not stated), 4.1 µM; as for `C[C@@H]1O[C@@H](O[C@H]2C[C@@H](O)[C@]3(CO)[C@H]4[C@H](O)C[C@]5(C)[C@@H](C6COC(=O)C6)CC[C@]5(O)[C@@H]4CC[C@]3(O)C2)[C@H](O)[C@H](O)[C@H]1O` (some centres not stated), 2.76 µM.
Consider `CN(C)c1ccc(C(=C2C=CC(=[N+](C)C)C=C2)c2ccc(N(C)C)cc2)cc1`, for which the AC50 in assay [2] was 0.099 µM.
The same measure, in the same setting: as for `O=C(Nc1ccc(C(F)(F)F)cc1)N1C[C@@H]2N[C@H](C1)C2c1ccc(-c2ccccc2)cc1` (some centres not stated), the figure is 3.28 µM.
In the case of `CC(=O)OCC12CC(OC(=O)CC(C)C)C(C)=CC1OC1C(O)C(OC(C)=O)C2(C)C12CO2` (configuration not stated), the AC50 in assay [2] was 0.00346 µM.
Take `COc1ccc(C(=O)O/N=C2\C(=O)N(C)c3ccccc32)cc1`: the half-maximal activity concentration (AC50) in assay [2] was 7.39 µM.
As to `CC1CC(C)(C)Nc2ccc(OC(=O)c3ccco3)cc21` (configuration not stated), the half-maximal activity concentration (AC50) in assay [2] is 2.42 µM.
Same read-out and setting: as for `Nc1ccc(-c2cccc3c(=O)cc(N4CCOCC4)oc23)cc1`, the figure is 8.56 µM.
The same measure, in the same setting: for `O=C1C=CC(=O)c2c(O)c(N3CCN(CCOCCO)CC3)c(Br)c(O)c21` the value was 1.33 µM; for `CC1CCOC(=O)C=CC=CC(=O)OC2CC3OC4C5OC5(C)C(O)CC4(COC(=O)C1O)C2(C)C31CO1` (configuration not stated), 0.0338 µM; for `COc1cc2cc(C(=O)N3CC(COS(C)(=O)=O)c4ccc(O)cc43)[nH]c2c(OC)c1OC` (configuration not stated), 0.00612 µM.
As for `Cc1ccccc1NC(=O)c1nc(S(C)(=O)=O)ncc1Cl`, the AC50 in assay [2] is 1.96 µM.
Turning to `COc1ccc(S(=O)(=O)N(C)C[C@H]2Oc3ccc(NC(=O)Nc4ccc(C(F)(F)F)cc4)cc3C(=O)N([C@@H](C)CO)C[C@@H]2C)cc1`, in assay [2], the AC50 is > 20 µM (inactive).
With `O=C1/C(=C/c2ccccc2)C[C@@]2(O)C3Cc4ccc(O)c5c4[C@@]2(CCN3CC2CC2)[C@H]1O5`, in assay [2], the AC50 was 1.34 µM.
Consider `O=C(COC(=O)c1ccccc1)c1ccc2c(c1)OCCO2`, for which the concentration at half-maximal activity (AC50) in assay [2] is 0.986 µM.
Turning to `CC1CC(C)C(=NNC(N)=O)C(C(O)CC2CCC(=O)NC2=O)C1` (configuration not stated), in assay [2], the AC50 is 0.188 µM.
As to `CC(=O)OC(C)(C)/C=C/C(=O)C(C)(O)C1C(O)CC2(C)C3CC=C4C(CC(O)C(=O)C4(C)C)C3(C)C(=O)CC12C` (configuration not stated), the half-maximal activity concentration (AC50) in assay [2] was 0.029 µM.
Turning to `CCCNC(=O)N1[C@H](C#N)[C@H](c2ccc(C#Cc3cccc(F)c3)cc2)[C@H]1CO`, the half-maximal activity concentration (AC50) in assay [2] was 8.92 µM.
Regarding `O=C(c1nnsc1S(=O)(=O)c1ccc(Cl)cc1)N1CCOCC1`, in assay [2], the concentration at half-maximal activity (AC50) was 2.07 µM.
Turning to `CCN1/C(=C/c2sc(-c3ccccc3C)c[n+]2C)Sc2ccccc21`, in assay [2], the AC50 is 0.574 µM.
`COc1ccc(/C=C/C(=O)Nc2ccccc2C(=O)O)cc1OC`: in assay [2], the AC50 is 8.81 µM.
Same read-out and setting: as for `COc1ccc(/C=N/Nc2ncccc2[N+](=O)[O-])c(OC)c1`, the figure is 5.22 µM.
In the case of `CCN(CC)C(=O)c1ccc(NC(=O)Nc2ccccc2F)cc1`, the AC50 in assay [2] was 1.86 µM.
The same measure, in the same setting: as for `Cc1ccsc1C(=O)OCC(=O)c1cc(C)n(CC2CCCO2)c1C` (configuration not stated), the figure is 0.0426 µM; as for `N#C[C@H]1[C@H](c2ccc(-c3cccc(F)c3)cc2)[C@H](CO)N1C(=O)NC1CCCC1`, > 20 µM (inactive).
In the case of `O=C(C1CC1)N1C[C@@H]2N[C@H](C1)[C@@H]2c1ccc(-c2ccncc2)cc1`, the AC50 in assay [2] is 5 µM.
Same read-out and setting: for `COc1ccc(S(=O)(=O)Nc2ccc3c(c2)C(=O)N([C@H](C)CO)C[C@@H](C)[C@H](CN(C)Cc2ccc(C(F)(F)F)cc2)OCCCC[C@@H](C)O3)cc1` the value was 8.15 µM; for `O=C(Nc1ccc(C(F)(F)F)cc1)Nc1ccc2c(c1)[C@H]1C[C@@H](CC(=O)N3CCc4ccccc4C3)O[C@H](CO)[C@H]1O2`, 10.7 µM.
Regarding `Clc1ccc(C(Cn2ccnc2)OCc2ccsc2Cl)c(Cl)c1` (configuration not stated), the AC50 in assay [2] is 4.05 µM.
